The results in this text go back to the COVID Moonshot data (paper PMC7615835).

A word on the pIC50: it is the negative decadic logarithm of the IC50, by convention in mol/L.

Structures are written as SMILES. pIC50: −log10 of the molar value. Where “and” joins values, the source holds several entries; their conditions need not be identical. Equal values may be shown once.

For this test, the target named is SARS-CoV-2 Main Protease (SARS-CoV-2) (UniProt P0DTD1).

For the compound `CC1(C(=O)Nc2cncc3cc(S(C)(=O)=O)ccc23)CNS(=O)(=O)c2ccc(Cl)cc21` (stereo unspecified), the negative-log IC50 (pIC50) is 6.76.

On to `O=C(CN1CC(C(=O)Nc2cncc3cc(F)ccc23)c2cc(Cl)ccc2C1=O)NC1COC1` (stereo unspecified), for which the pIC50 was 6.00. Against the preceding compound, the pIC50 is 0.76 log units lower. The value for `O=C(CN1CC(C(=O)Nc2cncc3ccccc23)c2cc(Cl)ccc2C1=O)NCC1CC1` (stereo unspecified) was 7.14 and 6.91; that for `Cn1cnc2cc(N(C(=O)c3cnc[nH]3)C(C(=O)NCCc3cccc(F)c3)c3cccnc3)ccc21` (stereo unspecified) was less than 4.00.

The compound `CNC(=O)CN1Cc2ccc(Cl)cc2C2(CCN(c3cncc4ccc(OCCN(C)C)cc34)C2=O)C1` (stereo unspecified) showed a pIC50 of 6.68.

Regarding `O=C(NCCc1cccc(F)c1)C(c1cccnc1)N(C(=O)c1cocn1)c1ccc(-n2cc[nH]c2=O)cc1` (stereo unspecified), the pIC50 was 4.35. The value for `CC(C)(C)c1ccc(N(C(=O)c2cocn2)C(C(=O)NCCc2cccc(F)c2)c2cc(=O)[nH]c3ccccc23)cc1` (stereo unspecified) was 5.94; that for `CC(C)(c1ccc(N(C(=O)c2cocn2)C(C(=O)NCCc2cccc(F)c2)c2cccnc2)cc1)S(C)(=O)=O` (stereo unspecified) was 4.17. The value for `CN1CCN(c2ccc(Nc3cc(Cl)cc(CC(=O)Nc4cncc5ccccc45)c3)cc2F)CC1` was 5.55; that for `CC1=C[C@@H](c2c(O)cc(-c3cc4ccc(O)cc4o3)cc2O)[C@@H](C(=O)c2ccc(O)cc2O)[C@H](c2ccc(O)cc2O)C1` (stereo in doubt) was less than 4.00. As for `Cc1c(NC(=O)C2CCOc3ccc(Cl)cc32)cncc1N(C)C` (stereo unspecified), the pIC50 is less than 4.00. `COCCN1CC(C(=O)Nc2cncc3ccccc23)c2cc(Cl)ccc2C1=O` (stereo unspecified) had a negative logarithm of the IC50 (pIC50) of 6.57.

In the case of `O=C(CCl)N1CCN(Cc2cc(O)cc(Cl)c2)CC1`, the pIC50 was 4.89. The result for `O=C1CCCN(S(=O)(=O)c2cccs2)CC1` reads less than 4.00; that for `CC(CCc1ccco1)NC(=O)Nc1cn(C)c(=O)c2ccccc12` (stereo unspecified), 4.35.

Consider `O=C(CCc1nc2ccccc2[nH]1)N1CCC(CCc2ccccc2)CC1`, for which the pIC50 is less than 4.00. The result for `N#CC1(CS(=O)(=O)N2Cc3ccc(Cl)cc3C(C(=O)Nc3nncn3C3CC3)C2)CC1` (stereo unspecified) reads 4.26; that for `CC(C)(C)c1ccc(N(C(=O)c2n[nH]c(=O)[nH]c2=O)C(C(=O)NCCc2cccc(F)c2)c2cccnc2)cc1` (stereo unspecified), less than 4.00; that for `CCC1(C(=O)Nc2cncc3ccc(S(C)(=O)=O)cc23)CNC(=O)c2ccc(Cl)cc21` (stereo unspecified), 5.84. The value for `CC(C)Sc1ccccc1Nc1cc(Cl)cc(CC(=O)Nc2cncc3ccccc23)c1` was 5.70; that for `O=C(Cc1cc(Cl)cc(N2CCN(c3cccc([N+](=O)[O-])c3)CC2)c1)Nc1cncc2ccccc12` was 5.54.

Compound `Cc1nn(C)c2[nH]nc(NC(=O)Cc3cccc(Cl)c3)c12` gave a pIC50 of less than 4.00. `O=C(NCCCO)c1ccc(N(C(=O)c2cocn2)C(C(=O)NCCc2cccc(F)c2)c2cccnc2)cc1` (stereo unspecified) gave a pIC50 of less than 4.00.

The compound `O=C(Cc1cc(Cl)cc(Nc2ncnc(Cl)c2Cl)c1)Nc1cncc2ccccc12` showed a negative-log IC50 (pIC50) of 5.69.

For `Cn1cncc1NC(=O)Cc1cccc(Cl)c1`, the pIC50 is 4.03. The result for `COc1ccc2c(NC(=O)Cc3cccc(Cl)c3)noc2c1` reads less than 4.00; that for `O=C(c1cc(=O)[nH]c2ccccc12)N1CCN(c2ccc(F)cc2)CC1`, 4.78.

`C=CC(=O)NCC(=O)N(Cc1ccccc1)C[C@H](O)c1cccs1` (stereo in doubt) had a negative-log IC50 (pIC50) of less than 4.00. The value for `C[C@H](C(=O)O)C(=O)SCCNC(=O)CCNC(=O)[C@H](O)C(C)(C)COP(=O)(O)OP(=O)(O)OC[C@H]1O[C@@H](n2cnc3c(N)ncnc32)[C@H](O)[C@@H]1OP(=O)(O)O` (stereo in doubt) was less than 4.00; that for `O=C(Cc1cc(Cl)cc(Nc2ccc3c(c2)OCCO3)c1)Nc1cncc2ccccc12` was 5.67. The value for `O=C(Cc1cccc(Cl)c1)Nc1n[nH]c2ccncc12` was less than 4.00; that for `O=C(Cc1ccncc1Cl)Nc1cncc2ccccc12` was 4.28; that for `COC(=O)c1ccc(-c2cc(Cl)cc(CC(=O)Nc3cnccc3C)c2)c(OC)c1` was 5.02 and 4.77. As to `COc1ccc2cncc(NC(=O)[C@@]3(OC)CCOc4ccc(Cl)cc43)c2c1` (stereo in doubt), the pIC50 is 5.38. The result for `COC(=O)C(C)(CN(C(=O)c1ccco1)C(C(=O)NCCc1cccc(F)c1)c1cccnc1)c1ccccc1F` (stereo unspecified) reads less than 4.00; that for `CC(C(N)=O)c1cc(Cl)cc(CC(=O)Nc2cncc3ccccc23)c1` (stereo unspecified), 5.58. The result for `O=C(Cc1cc(Cl)cc(Nc2cnc(Br)cn2)c1)Nc1cncc2ccccc12` reads 5.68; that for `N#Cc1cc(CN2CCN(C(=O)CCl)CC2)c2ccccc2c1`, 5.34; that for `CN(Cc1ccc(Cl)cc1)c1cc(Cl)cc(CC(=O)Nc2cncc3ccccc23)c1`, 5.62. With `COc1ccc(Cl)c(Nc2cc(Cl)cc(CC(=O)Nc3cncc4ccccc34)c2)c1`, the negative logarithm of the IC50 (pIC50) is 5.77. The value for `Cc1cc(C(=O)N2Cc3ccc(Cl)cc3C3(CCN(c4cncc5ccccc45)C3=O)C2)n(C)n1` (stereo unspecified) was 6.33. `Cc1ccncc1NC(=O)C(C)c1cccc(C#N)c1` (stereo unspecified) gave a pIC50 of 4.26. Compound `O=C(NCCc1cccc(F)c1)C(c1cccnc1)N(Cc1cc(C(F)(F)F)cs1)C(=O)c1ccco1` (stereo unspecified) had a pIC50 of less than 4.00. The result for `O=C(Cn1ccc(=O)[nH]c1=O)N1CCN(c2ccccc2O)CC1` reads less than 4.00; that for `CC(=O)NCCc1c[nH]c2ccc(O)cc12`, less than 4.00; that for `CCC(C)(C)CCN(Cc1ccsc1)C(=O)Cn1nnc2ccccc21`, 4.11.

`O=C(Cc1ccc(Cl)c(F)c1)Nc1cncc2ccccc12` showed a pIC50 of 5.69. The value for `CC1(CS(=O)(=O)N2Cc3ccc(Cl)cc3C(C(=O)Nc3cncc4cc(S(C)(=O)=O)ccc34)C2)CS(=O)(=O)C1` (stereo unspecified) was 7.08 and 6.83; that for `O=C(Cc1cc(Cl)cc(Nc2cccc(C(F)(F)F)c2F)c1)Nc1cncc2ccccc12` was 5.74; that for `O=C(Cc1cccc(Cl)c1)Nc1cccc2cn[nH]c12` was less than 4.00.

In turn, `O=C(Cc1cc(Cl)cc(Nc2ncc(C(F)(F)F)cc2Cl)c1)Nc1cncc2ccccc12` showed a pIC50 of 5.77. The value for `O=C(N/N=c1\cc[nH]c2ccccc12)c1ccc2ncccc2c1` was less than 4.00. As for `O=C(Cc1cc(Cl)cc(NCc2cccc(F)c2Cl)c1)Nc1cncc2ccccc12`, the negative logarithm of the IC50 (pIC50) was 5.65.

In turn, `Cc1[nH]ncc1CC(=O)Nc1cccc(Cl)c1` gave a pIC50 of 4.26. Compound `CC(C)c1ccncc1NC(=O)Cc1cccc(Cl)c1` had a pIC50 of 4.71. The value for `N#CCC1(CS(=O)(=O)N2Cc3ccc(Cl)cc3C3(CCN(c4cncc5ccccc45)C3=O)C2)CC1` (stereo unspecified) was 6.47; that for `O=C(Cc1cc(Cl)cc(Nc2c(Cl)cc(Cl)cc2Br)c1)Nc1cncc2ccccc12` was 5.79. The result for `O=C(Cc1cc(Cl)cc(Nc2ccc(SC(F)(F)F)cc2)c1)Nc1cncc2ccccc12` reads 5.74. For the compound `CC(C)(C)c1ccc(O)c(Nc2cc(Cl)cc(CC(=O)Nc3cncc4ccccc34)c2)c1`, the negative-log IC50 (pIC50) was 5.19. The compound `CC1(C(=O)Nc2cncc3cc(S(C)(=O)=O)ccc23)CN(CC(=O)NC2CC2)S(=O)(=O)c2ccc(Cl)cc21` (stereo unspecified) gave a pIC50 of 6.33. This pIC50 lies 1.14 log units higher than the previous one. The value for `Cc1ccncc1NC(=O)C1(c2cccc(Cl)c2)CC1` was less than 4.00. The result for `Nc1nn(C(=O)Cc2cccc(Cl)c2)c2cc(F)ccc12` reads less than 4.00.

For the compound `O=C(Cc1cc(Cl)cc(Nc2nnc(Cl)cc2Br)c1)Nc1cncc2ccccc12`, the pIC50 was 5.74. The result for `CCCCN1C(=O)C(=O)c2cc(Br)cc(C)c21` reads less than 4.00; that for `O=C(Cc1cc(Cl)cc(Nc2c(F)cccc2Br)c1)Nc1cncc2ccccc12`, 5.47; that for `Cn1ccc2cc(N(C(=O)c3cocn3)C(C(=O)NCCc3cccc(F)c3)c3cccnc3)ccc21` (stereo unspecified), 4.62. The value for `CS(=O)(=O)CCN1CC(C(=O)Nc2cncc3ccccc23)c2cc(Cl)ccc2C1=O` (stereo unspecified) was 6.75; that for `COC(=O)C1CC(NC(=O)C(c2cccnc2)N(C(=O)c2cocn2)c2ccc(C(C)(C)C)cc2)C1` (stereo unspecified) was 5.40; that for `COC1(CS(=O)(=O)N2Cc3ccc(Cl)cc3C3(CCN(c4cncc5cc(S(C)(=O)=O)ccc45)C3=O)C2)CC1` (stereo unspecified) was 6.38.

Regarding `O=C(Cc1cc(Cl)cc(Nc2ccc(F)cc2I)c1)Nc1cncc2ccccc12`, the pIC50 was 5.75.

For `C=CS(=O)(=O)N1CCN(S(=O)(=O)c2ccccc2)CC1`, the pIC50 is less than 4.00. Compound `CN(C)C(=O)c1cc2c(NC(=O)C3CCOc4ccc(Cl)cc43)cncc2s1` (stereo unspecified) gave a pIC50 of 6.40. `Nc1ccc2[nH]c(C(=O)N(C(=O)c3ccco3)C(C(=O)NCCc3cccc(F)c3)c3cccnc3)cc2c1` (stereo unspecified) showed a pIC50 of less than 4.00.

Regarding `CCN(C(=O)c1ccco1)C(C(=O)NCCc1cccc(F)c1)c1cccnc1` (stereo unspecified), the pIC50 was less than 4.00. The value for `Cc1ccncc1NC(=O)Cc1cc(Cl)cc(-c2ccc(S(C)(=O)=O)cc2Cl)c1` was less than 4.00; that for `Cc1c(Br)cnc(Nc2cc(Cl)cc(CC(=O)Nc3cncc4ccccc34)c2)c1[N+](=O)[O-]` was 5.66; that for `O=C(Cc1cc(Cl)cc(NCc2ccc(Cl)c(C(F)(F)F)c2)c1)Nc1cncc2ccccc12` was 5.53. The result for `Cc1cc(O)c(C(C(=O)NCCc2cccc(F)c2)N(C(=O)c2cocn2)c2ccc(C(C)(C)C)cc2)c(=O)[nH]1` (stereo unspecified) reads less than 4.00; that for `Cn1nncc1C(=O)N1Cc2ccc(Cl)cc2C(C(=O)Nc2cncc3ccccc23)C1` (stereo unspecified), 6.40. For the compound `C[C@]1(C(=O)Nc2cncc3c2CCCC3)CNS(=O)(=O)c2ccc(Cl)cc21` (stereo in doubt), the pIC50 is 6.67. The result for `CN(C)C(=O)COCC(=O)NC(C(=O)Nc1cncc2ccccc12)c1cccc(Cl)c1` (stereo unspecified) reads 5.27; that for `CN(C)CCOc1ccc2cncc(NC(=O)C3CN(S(=O)(=O)CC4(C)CS(=O)(=O)C4)Cc4ccc(Cl)cc43)c2c1` (stereo unspecified), 6.90; that for `CN(C)c1ccc(N(Cc2ccn[nH]2)C(=O)Cn2nnc3ccccc32)cc1`, 4.80. The result for `Cc1ccc2cncc(NC(=O)Cc3cccc(Cl)c3)c2c1` reads 6.27; that for `Cc1nc2ccc(NCc3cnc4ccccn34)cn2n1`, less than 4.00. The value for `CC(=O)NC(C)c1cc(Cl)cc(-c2ccc(S(N)(=O)=O)cc2)c1` (stereo unspecified) was less than 4.00.
